Test results reported in patent US20130345257A1, “COMPOSITION FOR LUPUS NEPHRITIS AND METHODS OF MAKING AND USING THE SAME” (The Regents of the University of California, priority 2012, published 2013).
“Also recorded” adds a separate entry of the source.

Experiments:
Format in all cases: in vivo, mouse
spleen cell subsets [1] = experiment: Spleen cell subsets of treated BWF1 mice by flow cytometry; details: for Numbers of MM (splenic PBMC): mouse, in vivo; for Frequency of cells ± SEM: CD4+ / Frequency of cells ± SEM: CD8+ / Frequency of cells ± SEM: CD11b^+Ly6C^+Ly6G+ / Frequency of cells ± SEM: CD11b^+Ly6C^+Ly6G− / Frequency of cells ± SEM: CD11b^+MDSC−(Mφ) / Frequency of cells ± SEM: CD11c^+CD11b+(DC) / Frequency of cells ± SEM: CD11c^+CD11b− (DC) / Frequency of cells ± SEM: CD4^+CD25^+Foxp3^+ / Frequency of cells ± SEM: CD19+: spleen, LAQ 25 mg/kg, MMF 100 mg/kg
spleen cell subsets [2] = experiment: as above; details: for Percentage of CD8^+ cells in spleen: compared to the control mice; for Frequency of cells ± SEM: CD11b^+Ly6C^hiGr-1^− (MΦ^2) / Frequency of cells ± SEM: CD11b^+Ly6C^intGr-1^+ (Gr-1) / Frequency of cells ± SEM: CD 19^+ / Frequency of cells ± SEM: CD19^+CD23^−CD21^+IgM^hi (MZ): spleen at age 32 weeks, oral gavage from age 11 weeks, LAQ 25 mg/kg 3 days per week, MMF 100 mg/kg 5 days/week; for Frequency of cells ± SEM: CD 19^+ / Frequency of cells ± SEM: CD19^+CD23^−CD21^+IgM^hi (MZ): in % (unit assumed); for Percentage of CD4^+ T cells in spleen: vs control mice
Text: Water-gavaged mice constituted the control untreated animals. The spleen cell subsets were identified by the expression of cell surface markers at age 32 weeks as follow: iTregs; nTregs; MΦ: CD11b^−CD103^−; MΦ^2: CD11b^+Ly6C^hiGr-1^−; MΦ^3: CD11b^+Ly6C^intGr-1^−; Gr-1: CD11b ly6C^intGr-1^+; DC: CD11c^+CD103^+; T2: CD19^+CD23^+CD21^+IgM^hi; MZ: CD19^+CD23^−CD21^+IgM^hi. Abbreviations: iTregs=induced T regulatory cells (Tregs). nTregs=natural Tregs. T2=transitional 2 B cells. MZ=marginal zone B cells. MΦ=macrophages. Gr1=granulocytes. Values are mean±SEM. The statistical significance between the groups was determined by analysis of variance (-A-NOVA). ^AP<0.05 versus untreated controls.
Single cell suspensions of splenocytes or kidney cells were prepared using cell strainers (Fisher), followed by red blood cell lysis. Kidney lymphocytes were separated from connective tissue by centrifugation (15 minutes at 400g) in 30% Percoll (GE Healthcare). CD4^+CD25^− cells from spleen and kidney were isolated using the CD4^+CD25^+ regulatory T cell isolation kit according to manufacturer's protocol (Miltenyi). CD11b+ cells were isolated using EasySep mouse CD11b positive selection kit (StemCell Technologies), surface stained for Ly6C and Ly6G prior to sorting myeloid-derived suppressor cells (MDSC) using FACSAria II. Populations were >95% pure by FACS analysis.
Single-cell suspensions from spleen or kidneys were stained for extracellular markers for 20 min at 4° C. in PBS/1% FBS. Intracellular staining for Foxp3 and cytokines was performed using the Foxp3 Fixation/Permeabilization kit according to the manufacturer's protocol (eBioscience). Cells were acquired on a FACS LSR II (BD) and data was analyzed using Flowjo (Tree Star).

[3] = system: BWF1 mice with anti-dsDNA and low proteinuria (PU^lo); experiment: Therapeutic treatment of BWF1 mice with anti-dsDNA and low proteinuria (PU^lo); details: LAQ 25 mg/kg, MMF 100 mg/kg; for Anti-dsDNA / Increase of proteinuria / Rise in serum creatinine / Survival: PU^lo arm; for Reduction of endo-capillary hypercellularity, interstitial inflammation, and focal segmental glomerulosclerosis: PU^lo mice
Protocol: Therapeutic Groups: a low proteinuria group)(PU^lo) consisted of mice with IgG anti-dsDNA detectable in serum and proteinuria ≦100 mg/dL, and a high proteinuria group (PU^hi) had proteinuria ≧300 mg/dL.
Proteinuria was evaluated weekly using Albustix (Siemens), serum creatinine using a commercial kit (Arbor Assays) and anti-dsDNA IgG antibodies by ELISA as described previously (10). See, e.g., FIGS. 1 and 2.
Kidney specimens of BWF1 mice (37 weeks of age in the prevention group or 7 and 11 weeks after institution of early or late therapies) were embedded in OCT compound and snap frozen. 4-5 μm an sections were air-dried, fixed with cold acetone and incubated with blocking buffer (anti-CD16/CD32 (1/50), 2% normal goat or rat serum, 2% BSA).
Histological analysis of glomerular pathology was done by an investigator blinded to treatment group and included acute inflammatory features (endocapillary hypercellularity, mesangial hypercellularity, cellular necrosis, cellular crescents, and interstitial inflammation), and chronic features (global glomerulosclerosis (GS), focal segmental glomerulosclerosis (FSGS), and interstitial fibrosis or tubular atrophy (IF/TA)). […] The weighted total score of the clinical features was based on this formula: [endocapillary hypercellularity+mesengial hypercellularity+(cellular necrosis*2)+(cellular crescents*2)+interstitial inflammation)/5]+(GS+FSGS+IFTA)/3, with maximum score 5.2. A minimum of 25 glomeruli, of at least 10 mice per group, were scored. Scores from each individual mouse were added and averaged to yield the glomerulonephritis score.

[4] = spleen at age 32 weeks, oral gavage from age 11 weeks, LAQ 25 mg/kg 3 days per week, MMF 100 mg/kg 5 days/week
[5] = Preventive, 25 weeks after treatment
[6] = Preventive, 25 weeks after treatment, in % (unit assumed)
[7] = Therapeutic (PU^lo), 10 wks after initiation of therapy
[8] = Therapeutic (PU^lo), 10 wks after initiation of therapy, in % (unit assumed)

SMILES | Numbers of MM (splenic PBMC) (spleen cell subsets [1]) | Frequency of cells ± SEM: CD11b^+CD103^− (MΦ^1) (spleen cell subsets [1]; [4]) | Frequency of cells ± SEM: CD11b^+Ly6C^intGr-1^− (MΦ^3) (spleen cell subsets [1]; [4]) | Frequency of cells ± SEM: CD4+ (spleen cell subsets [1]; [5]) | Frequency of cells ± SEM: CD8+ (spleen cell subsets [1]; [5]) | Frequency of cells ± SEM: CD11b^+Ly6C^+Ly6G+ (spleen cell subsets [1]; [5]) | Frequency of cells ± SEM: CD11b^+Ly6C^+Ly6G− (spleen cell subsets [1]; [5]) | Frequency of cells ± SEM: CD11b^+MDSC−(Mφ) (spleen cell subsets [1]; [5]) | Frequency of cells ± SEM: CD11c^+CD11b+(DC) (spleen cell subsets [1]; [5]) | Frequency of cells ± SEM: CD11c^+CD11b− (DC) (spleen cell subsets [1]; [5]) | Frequency of cells ± SEM: CD4^+CD25^+Foxp3^+ (spleen cell subsets [1]; [6]) | Frequency of cells ± SEM: CD19+ (spleen cell subsets [1]; [6]) | Frequency of cells ± SEM: CD4+ (spleen cell subsets [1]; [7]) | Frequency of cells ± SEM: CD8+ (spleen cell subsets [1]; [7]) | Frequency of cells ± SEM: CD11b^+Ly6C^+Ly6G+ (spleen cell subsets [1]; [7]) | Frequency of cells ± SEM: CD11b^+Ly6C^+Ly6G− (spleen cell subsets [1]; [7]) | Frequency of cells ± SEM: CD11b^+MDSC−(Mφ) (spleen cell subsets [1]; [7]) | Frequency of cells ± SEM: CD11c^+CD11b+(DC) (spleen cell subsets [1]; [7]) | Frequency of cells ± SEM: CD11c^+CD11b− (DC) (spleen cell subsets [1]; [7]) | Frequency of cells ± SEM: CD4^+CD25^+Foxp3^+ (spleen cell subsets [1]; [8]) | also measured
CCN(C(=O)c1c(O)c2c(Cl)cccc2n(C)c1=O)c1ccccc1 [LAQ, 5-chloro-N-ethyl-4-hydroxy-1-methyl-2-oxo-N-phenyl-1,2-dihydroquinoline-3-carboxamide] | significantly reduced | 2.63 ± 0.30^A | 18.48 ± 2.31^A | 20.2 ± 0.5 | 12.3 ± 0.7 | 31.7 ± 3.6 | 37.5 ± 2.1 | 25.2 ± 1.7 | 0.7 ± 0.1 | 3.8 ± 0.2 | 9.4 ± 0.6 | 68.0 ± 3.8 | 21.3 ± 1.3 | 24.9 ± 2.9 | 33.2 ± 5.6 | 38.7 ± 1.9 | 25.6 ± 3.3 | 1.0 ± 0.2 | 4.5 ± 0.4 | 2.2 ± 0.1 | Percent of CD4^+ Tregs (CD4^+CD25^+Foxp3^+) in splenocytes (spleen cell subsets [1]; FIG. 8): increased; Numbers of two putative regulatory cells, CD4^+CD25^+Foxp3^+ Treg and CD11b^+Ly6C^intGR-1^+ myeloid MM (spleen cell subsets [1]; LAQ compared to MMF): increased; Percentage of CD8^+ cells in spleen (spleen cell subsets [1]; compared to the control mice, listed as laquinimod): did not; Frequency of cells ± SEM: CD19^+CD23^+CD21^+IgM^hi (T2) (spleen cell subsets [1]; [4]): 51.19 ± 4.32^A; Frequency of cells ± SEM: CD19+ (spleen cell subsets [1]; [8]): 51.1 ± 3.3; Percentage of CD4^+ T cells in spleen (spleen cell subsets [1]; vs control mice, listed as laquinimod): did not; Percentage of CD8^+ cells in spleen (spleen cell subsets [2]): did not; also recorded: not significantly altered; Frequency of cells ± SEM: CD11b^+Ly6C^hiGr-1^− (MΦ^2) (spleen cell subsets [2]): 12.15 ± 2.11; Frequency of cells ± SEM: CD11b^+Ly6C^intGr-1^+ (Gr-1) (spleen cell subsets [2]): 41.50 ± 3.08^A; Frequency of cells ± SEM: CD 19^+ (spleen cell subsets [2]): 68.02 ± 3.83; Frequency of cells ± SEM: CD19^+CD23^−CD21^+IgM^hi (MZ) (spleen cell subsets [2]): 11.85 ± 2.15; Percentage of CD4^+ T cells in spleen (spleen cell subsets [2]): did not; Anti-dsDNA [3]: not significantly decreased; Increase of proteinuria [3]: prevented increased proteinuria; Rise in serum creatinine [3]: prevented; Survival [3]: significantly prolonged survival; Reduction of endo-capillary hypercellularity, interstitial inflammation, and focal segmental glomerulosclerosis [3]: equally effective
COc1c(C)c2c(c(O)c1C/C=C(\C)CCC(=O)OCCN1CCOCC1)C(=O)OC2 [MMF, mycophenolate mofetil, reference compound] | not | 2.26 ± 0.25^A | 23.44 ± 1.89 | 26.2 ± 1.3 | 12.4 ± 0.9 | 15. ± 1.6 | 33.4 ± 1.8 | 59.3 ± 2.3 | 1.0 ± 0.1 | 4.4 ± 0.3 | 7.9 ± 0.4 | 57.4 ± 3.9 | 20.1 ± 0.7 | 13.5 ± 2.1 | 17.5 ± 2.4 | 30.4 ± 2.7 | 40.5 ± 3.1 | 0.9 ± 0.2 | 4.1 ± 0.7 | 3.2 ± 0.8 | Frequency of cells ± SEM: CD11c^+CD103^+ (DC) (spleen cell subsets [1]; [4]): 0.48 ± 0.04^A; Frequency of cells ± SEM: CD19^+CD23^+CD21^+IgM^hi (T2) (spleen cell subsets [1]; spleen at age 32 weeks, oral gavage from age 11 weeks, LAQ 25 mg/kg 3 days per week, MMF 100 mg/kg 5 days/week, in % (unit assumed)): 36.56 ± 4.92; Frequency of cells ± SEM: CD19+ (spleen cell subsets [1]; [8]): 45.4 ± 3.3; Percentage of CD8^+ cells in spleen (spleen cell subsets [2]): decreased; also recorded: reduced; Frequency of cells ± SEM: CD11b^+Ly6C^hiGr-1^− (MΦ^2) (spleen cell subsets [2]): 11.81 ± 1.58; Frequency of cells ± SEM: CD11b^+Ly6C^intGr-1^+ (Gr-1) (spleen cell subsets [2]): 25.01 ± 5.32; Frequency of cells ± SEM: CD 19^+ (spleen cell subsets [2]): 57.38 ± 3.89; Frequency of cells ± SEM: CD19^+CD23^−CD21^+IgM^hi (MZ) (spleen cell subsets [2]): 3.78 ± 0.99; Percentage of CD4^+ T cells in spleen (spleen cell subsets [2]): decreased; also recorded: significantly lower percentage; Anti-dsDNA [3]: not significantly decreased; Increase of proteinuria [3]: prevented increased proteinuria; Rise in serum creatinine [3]: prevented; Survival [3]: significantly prolonged survival; Reduction of endo-capillary hypercellularity, interstitial inflammation, and focal segmental glomerulosclerosis [3]: equally effective
